System: GBM8 human glioblastoma cells
Assay: GBM8 viability assay (Cell Titer Glo)
Type: cell-based
Settings: 72 h, Table 1, 3 days incubation, luminescence
Experimental: Cell culture medium was prepared from a NSA proliferation kit (Neurocult) and NeuroCult supplements (Stemcell Tech Cat. #05751) and treated with 20 μL of 10 μg/mL rh EGF, 10 μL of 10 μg/mL rh bFGF and 10 μL of 0.2% Heparin. In this medium, human glioblastoma cells were cultured in ultra-low attachment tissue culture flasks until 1×10^6 cells ml was achieved (GBM4 and GBM8 are distinct neurosphere cell cultures derived from these human patient tissues). GBM4 and GBM8 cells were dissociated and 10 mL of media containing 4000 human glioblastoma cells per 90 μL were transferred to an ultra-low binding 96-well plate and incubated at 37° C. overnight. On the following day, 10 μL of a 1% DMSO solution of test compound in assay medium was added to wells containing the cell suspension and the mixture incubated at 37° C. for 3 days. At this time, the plate was removed from the incubator and allowed to reach room temperature. After about 30 minutes, 50 μL of Cell Titer Glo solution was added to each well and the plate shaken for 1 minute at low speed. After 10 minutes luminescence was recorded using a Tecan Safire2 reader.
Reduction in luminescence compared to DMSO only control wells was used to determine the percentage inhibition of cell growth. IC50s were calculated using the % inhibition of luminescence for serial dilutions of compounds fitted to a 4-parameter fit within the Prism (San Diego) curve fitting program. Tables 1 (compounds 3-188) and 2 (compounds 190-212) show the GBM4 IC50 and GBM8 IC50 for compounds described herein.

SMILES	IC50 [nM]
Cc1cc(NCCN)nc(NC(=O)Nc2ccc3ccccc3c2)n1 [Compound 5, 1-(4-((2-aminoethyl)amino)-6-methylpyrimidin-2-yl)-3-(naphthalen-2-yl)urea]	< 500
Cc1cc(NCCN(C)C)nc(NC(=O)Nc2ccc3ccccc3c2)n1 [Compound 6]	< 500
Cc1cc(NCCO)nc(NC(=O)Nc2ccc3ccccc3c2)n1 [Compound 8]	< 500
CNCCCN(C)c1cc(C)nc(NC(=O)Nc2ccc3ccccc3c2)n1 [Compound 9]	500 to 5000
Cc1cc(NCCCCN)nc(NC(=O)Nc2ccc3ccccc3c2)n1 [Compound 10]	< 500
Cc1cc(NCC2CCCN(C)C2)nc(NC(=O)Nc2ccc3ccccc3c2)n1 (stereo not shown) [Compound 11]	500 to 5000
CCCNc1cc(C)nc(NC(=O)Nc2ccc3ccccc3c2)n1 [Compound 12]	< 500
Cc1cc(NCCOCCO)nc(NC(=O)Nc2ccc3ccccc3c2)n1 [Compound 13]	< 500
Cc1cc(NCC(C)O)nc(NC(=O)Nc2ccc3ccccc3c2)n1 (stereo not shown) [Compound 14]	< 500
Cc1cc(NCCc2ccccn2)nc(NC(=O)Nc2ccc3ccccc3c2)n1 [Compound 15]	5000 to 30000
Cc1cc(NCCCc2ccccn2)nc(NC(=O)Nc2ccc3ccccc3c2)n1 [Compound 16]	< 500
Cc1cc(NCCCCN(C)C)nc(NC(=O)Nc2ccc3ccccc3c2)n1 [Compound 17]	< 500
Cc1cc(NCC(O)CO)nc(NC(=O)Nc2ccc3ccccc3c2)n1 (stereo not shown) [Compound 18]	< 500
CNc1cc(C)nc(NC(=O)Nc2ccc3ccccc3c2)n1 [Compound 20]	< 500
Cc1cc(N(C)C)nc(NC(=O)Nc2ccc3ccccc3c2)n1 [Compound 21]	500 to 5000
Cc1cc(NCCc2ncc[nH]2)nc(NC(=O)Nc2ccc3ccccc3c2)n1 [Compound 22, 1-(4-((2-(1H-imidazol-2-yl)ethyl)amino)-6-methylpyrimidin-2-yl)-3-(naphthalen-2-yl)urea]	< 500
Cc1cc(NCCCc2ncc[nH]2)nc(NC(=O)Nc2ccc3ccccc3c2)n1 [Compound 23, 1-(4-((3-(1H-imidazol-2-yl)propyl)amino)-6-methylpyrimidin-2-yl)-3-(naphthalen-2-yl)urea]	< 500
Cc1cc(NCCc2ccc[nH]2)nc(NC(=O)Nc2ccc3ccccc3c2)n1 [Compound 24, 1-(4-((2-(1H-pyrrol-2-yl)ethyl)amino)-6-methylpyrimidin-2-yl)-3-(naphthalen-2-yl)urea]	< 500
COC(=O)CCNc1cc(C)nc(NC(=O)Nc2ccc3ccccc3c2)n1 [Compound 25, methyl 3-((6-methyl-2-(3-(naphthalen-2-yl)ureido)pyrimidin-4-yl)amino)propanoate]	< 500
Cc1cc(NCCC(N)=O)nc(NC(=O)Nc2ccc3ccccc3c2)n1 [Compound 26, 3-((6-methyl-2-(3-(naphthalen-2-yl)ureido)pyrimidin-4-yl)amino)propanamide]	< 500

SMILES	IC50 [nM]
Cc1cc(NCC(F)(F)CO)nc(NC(=O)Nc2ccc3ccccc3c2)n1 [Compound 27, 1-(4-((2,2-difluoro-3-hydroxypropyl)amino)-6-methylpyrimidin-2-yl)-3-(naphthalen-2-yl)urea]	< 500
Cc1cc(NCCOCCN(C)C)nc(NC(=O)Nc2ccc3ccccc3c2)n1 [Compound 28, 1-(4-((2-(2-(dimethylamino)ethoxy)ethyl)amino)-6-methylpyrimidin-2-yl)-3-(naphthalen-2-yl)urea]	< 500
CNCCNc1cc(C)nc(NC(=O)Nc2ccc3ccccc3c2)n1 [Compound 30, 1-(4-methyl-6-((2-(methylamino)ethyl)amino)pyrimidin-2-yl)-3-(naphthalen-2-yl)urea]	< 500
CNCCCNc1cc(C)nc(NC(=O)Nc2ccc3ccccc3c2)n1 [Compound 31, 1-(4-methyl-6-((3-(methylamino)propyl)amino)pyrimidin-2-yl)-3-(naphthalen-2-yl)urea]	< 500
Cc1cc(NCC2CCCNC2)nc(NC(=O)Nc2ccc3ccccc3c2)n1 (stereo not shown) [Compound 32, 1-(4-methyl-6-((piperidin-3-ylmethyl)amino)pyrimidin-2-yl)-3-(naphthalen-2-yl)urea]	< 500
CNCCCCNc1cc(C)nc(NC(=O)Nc2ccc3ccccc3c2)n1 [Compound 33, 1-(4-methyl-6-((4-(methylamino)butyl)amino)pyrimidin-2-yl)-3-(naphthalen-2-yl)urea]	< 500
CC(=O)NCCCNc1cc(C)nc(NC(=O)Nc2ccc3ccccc3c2)n1 [Compound 34, N-(3-((6-methyl-2-(3-(naphthalen-2-yl)ureido)pyrimidin-4-yl)amino)propyl)acetamide]	< 500
Cc1cc(NCCCNS(C)(=O)=O)nc(NC(=O)Nc2ccc3ccccc3c2)n1 [Compound 37, N-(3-((6-methyl-2-(3-(naphthalen-2-yl)ureido)pyrimidin-4-yl)amino)propyl)methanesulfonamide]	< 500
Cc1cc(NCCNC(=O)C(F)(F)F)nc(NC(=O)Nc2ccc3ccccc3c2)n1 [Compound 38, 2,2,2-trifluoro-N-(2-((6-methyl-2-(3-(naphthalen-2-yl)ureido)pyrimidin-4-yl)amino)ethyl)acetamide]	500 to 5000
Cc1cc(NCCC(=O)N(C)C)nc(NC(=O)Nc2ccc3ccccc3c2)n1 [Compound 42, N,N-dimethyl-3-((6-methyl-2-(3-(naphthalen-2-yl)ureido)pyrimidin-4-yl)amino)propanamide]	500 to 5000
CNC(=O)CCNc1cc(C)nc(NC(=O)Nc2ccc3ccccc3c2)n1 [Compound 43, N-methyl-3-((6-methyl-2-(3-(naphthalen-2-yl)ureido)pyrimidin-4-yl)amino)propanamide]	< 500
CONc1cc(C)nc(NC(=O)Nc2ccc3ccccc3c2)n1 [Compound 44, 1-(4-(methoxyamino)-6-methylpyrimidin-2-yl)-3-(naphthalen-2-yl)urea]	< 500
Cc1cc(NO)nc(NC(=O)Nc2ccc3ccccc3c2)n1 [Compound 45, 1-(4-(hydroxyamino)-6-methylpyrimidin-2-yl)-3-(naphthalen-2-yl)urea]	< 500
Cc1cc(N)nc(NC(=O)Nc2ccc3ccccc3c2)n1 [Compound 47, 1-(4-amino-6-methylpyrimidin-2-yl)-3-(naphthalen-2-yl)urea]	< 500
Cc1cc(NCCCN(C)C)nc(NC(=O)Nc2ccc3cnccc3c2)n1 [Compound 50, 1-(4-((3-(dimethylamino)propyl)amino)-6-methylpyrimidin-2-yl)-3-(isoquinolin-6-yl)urea]	< 500
Cc1cc(NCCN(C)C)nc(NC(=O)Nc2ccc3cnccc3c2)n1 [Compound 51, 1-(4-((2-(dimethylamino)ethyl)amino)-6-methylpyrimidin-2-yl)-3-(isoquinolin-6-yl)urea]	500 to 5000
Cc1cc(NCCN)nc(NC(=O)Nc2ccc3cnccc3c2)n1 [Compound 52, 1-(4-((2-aminoethyl)amino)-6-methylpyrimidin-2-yl)-3-(isoquinolin-6-yl)urea]	500 to 5000
Cc1cc(NCCCN)nc(NC(=O)Nc2ccc3cnccc3c2)n1 [Compound 53, 1-(4-((3-aminopropyl)amino)-6-methylpyrimidin-2-yl)-3-(isoquinolin-6-yl)urea]	500 to 5000
CCNc1cc(C)nc(NC(=O)Nc2ccc3cnccc3c2)n1 [Compound 54]	< 500
CNc1cc(C)nc(NC(=O)Nc2ccc3cnccc3c2)n1 [Compound 55]	< 500
